Active and inactive are the calls of the source. The calls are words filed in the database; no cut-off is given here.
Legend:
[1] = Inhibition of chymotrypsin-like activity of human 20S proteasome
[2] = Inhibition of trypsin-like activity of human 20S proteasome
[3] = Inhibition of peptidylglutamyl-peptide hydrolyzing activity of human 20S proteasome
PC-3 = test: Cytotoxicity against human PC3 cells; assay type: functional, cell-based

Row | IC50 [1] | IC50 [2] | IC50 [3] | SMILES | inhibition (PC-3)
1 | 2.6 nM | 2.8 µM | 0.94 µM | COc1ccc(C[C@H](NC(=O)Cc2cccc3ccccc23)C(=O)N[C@H](C(=O)N[C@@H](CC(C)C)B(O)O)C(C)C)cc1 | –
2 | 6.3 nM | 5.6 µM | > 40 µM | COc1ccc(C[C@H](NC(=O)[C@@H](NC(=O)[C@H](Cc2ccc(OC)cc2)NC(=O)Cc2cccc3ccccc23)C(C)C)B(O)O)cc1 | –
3 | 24 nM | > 40 µM | 0.73 µM | CC(C)C[C@H](NC(=O)[C@H](Cc1ccccc1)NC(=O)c1cnccn1)B(O)O [BORTEZOMIB] | –
4 | 100 nM | 4 µM | 7.7 µM | COc1ccc(C[C@H](N)C(=O)N[C@H](C(=O)N[C@@H](Cc2ccccc2)B(O)O)C(C)C)cc1 | –
5 | 130 nM | 3.7 µM | 16 µM | COc1ccc(C[C@H](NC(=O)[C@@H](NC(=O)[C@@H](N)Cc2ccc(OC)cc2)C(C)C)B(O)O)cc1 | –
6 | 4.4 nM | 4.6 µM | 7.4 µM | COc1ccc(C[C@H](NC(=O)Cc2cccc3ccccc23)C(=O)N[C@H](C(=O)N[C@@H](Cc2ccccc2)B(O)O)C(C)C)cc1 | –
7 | 21 nM | 1.9 µM | 1.4 µM | COc1ccc(C[C@H](N)C(=O)N[C@H](C(=O)N[C@@H](CC(C)C)B(O)O)C(C)C)cc1 | –
8 | 83 nM | > 40 µM | > 40 µM | COc1ccc(CC(C=O)NC(=O)[C@@H](NC(=O)[C@H](Cc2ccc(OC)cc2)NC(=O)Cc2cccc3ccccc23)C(C)C)cc1 (stereo not given in full) | Active

— ChEMBL document CHEMBL1154003, “Synthesis of boronic acid derivatives of tyropeptin: proteasome inhibitors” (Bioorg Med Chem Lett, 2009)
